Tests used:
[1] = cited from earlier work
TERT keratinocytes (tKC) = test: Cell Titer-Glo assay measuring ATP activity, used for normalization; format: cell-based, human; conditions: example calculation; vehicle control 704567
Procedure: TERT keratinocytes (tKC) are human keratinocytes which have been transfected with the human telomerase reverse transcriptase gene to immortalize the cells. They are obtained from Jerry Shay, University of Texas, Southwestern and plated at 40,000 cells/well into 24-well plates in 1 ml/well volume. EpiLife Medium (Life Technologies cat #[…]500) supplemented with keratinocyte growth supplement (Life technologies cat #S-001-5) is used as the assay media. The cells are grown to confluence/near confluence, (typically 24 hours after plating 40,000 cells/well in 24 well plate) and then subjected to 15 mJ/cm^2 UVB-stress (typically 14-16 exposure time in BioSun). […] The supernatant is removed from each well, and the cells are rinsed with 2 ml/well medium (without supplements). A Cell Titer-Glo assay (Promega cat #G7571; Madison Wis.) is used to measure ATP activity, which is conducted on the cells for normalization. The supernatant is tested in a PGE2 assay (Prostaglandin E2 Assay kit from Cisbio Bioassays cat #62P2APEB) according to the manufacturer's instructions. The PGE2 results are normalized to ATP activity. The PGE2 quantitation (pg/mL) from the supernatant is divided by the normalization factor (treatment ATP/control ATP).

[2] = tested on: PGE2 release from TERT keratinocytes (tKC); test: PGE2 assay: inhibition of PGE2 release from UVB-stressed keratinocytes, normalized to ATP; format: cell-based, human; conditions: for AVG PGE2 % Control / AVG PGE2 % Inhibition: piroctone olamine 1E-7% (w/v), alone or combined (observed), 15 mJ/cm2 UVB, 18-24 h; for Inhibiting PGE2 release from keratinocytes, individually (in words): each material alone
From the text: Inhibiting the Cell's Inflammation Response to a Stressor-Prostaglandin E2 (“PGE2”) Assay. […] PGE2 is a hormone-like substance that is known to participate in modulation of inflammation. Cellular inflammation is associated with a variety of hair, skin and scalp conditions, and thus inhibiting PGE2 activation vis-à-vis cellular inflammation may help treat these types of hair, skin and scalp conditions. TERT keratinocytes (tKC) are human keratinocytes which have been transfected with the human telomerase reverse transcriptase gene to immortalize the cells. They are obtained from Jerry Shay, University of Texas, Southwestern and plated at 40,000 cells/well into 24-well plates in 1 ml/well volume. EpiLife Medium (Life Technologies cat #[…]500) supplemented with keratinocyte growth supplement (Life technologies cat #S-001-5) is used as the assay media. The cells are grown to confluence/near confluence, (typically 24 hours after plating 40,000 cells/well in 24 well plate) and then subjected to 15 mJ/cm^2 UVB-stress (typically 14-16 exposure time in BioSun). […] The supernatant is removed from each well, and the cells are rinsed with 2 ml/well medium (without supplements). A Cell Titer-Glo assay (Promega cat #G7571; Madison Wis.) is used to measure ATP activity, which is conducted on the cells for normalization. The supernatant is tested in a PGE2 assay (Prostaglandin E2 Assay kit from Cisbio Bioassays cat #62P2APEB) according to the manufacturer's instructions. The PGE2 results are normalized to ATP activity. The PGE2 quantitation (pg/mL) from the supernatant is divided by the normalization factor (treatment ATP/control ATP). […] Synergy factor is simply the ratio of observed combination/expected combination.

[3] = 1:1 azoxystrobin:PO block, azoxystrobin 1E-7%
[4] = 1:10 azoxystrobin:PO block, azoxystrobin 1E-8%
[5] = 1:50 azoxystrobin:PO block, azoxystrobin 2E-9%
[6] = 4:1 azoxystrobin:PO block, azoxystrobin 4E-7%

SMILES | Solubility in water (in words) [1] | Luminescence in ATP assay (TERT keratinocytes (tKC)) | AVG PGE2 % Control [2, 3] | AVG PGE2 % Inhibition [2, 3] | AVG PGE2 % Control [2, 4] | AVG PGE2 % Inhibition [2, 4] | AVG PGE2 % Control [2, 5] | AVG PGE2 % Inhibition [2, 5] | AVG PGE2 % Control [2, 6] | AVG PGE2 % Inhibition [2, 6] | Inhibiting PGE2 release from keratinocytes, individually (in words) [2] | % inhibition (PGE2) ([2]; example calculation vs vehicle control) | Normalized PGE2 value ([2]; example calculation, PGE2 quantitation divided by normalization factor, control 2458) | PGE2 quantitation ([2]; example calculation, supernatant, before ATP normalization, vehicle control 2458 pg/mL)
CO/C=C(/C(=O)OC)c1ccccc1Oc1cc(Oc2ccccc2C#N)ncn1 [azoxystrobin] | low solubility in water | 678903 | 92% | 8% | 99% | 1% | 99% | 1% | 87% | 13% | relatively weak | 8% | 2261 | 2347 pg/mL
Cc1cc(CC(C)CC(C)(C)C)n(O)c(=O)c1.NCCO (centres unmarked) [piroctone olamine, 1-Hydroxy-4-methyl-6-(2,4,4-trimethylpentyl)-2-pyridone monoethanolamine salt] |  |  | 96.5% | 3.5% | 96.2% | 3.8% | 96.2% | 3.8% | 96.2% | 3.8% | relatively weak |  |  | 
